# According to paper PMC5063977 (The Journal of Biological Chemistry, 2016):
# Tests used:
# RAMP3-CLR (AM2 receptor) [1] = target: T1, RAMP3-CLR (AM2 receptor) (Homo sapiens, UniProt O60896+Q16602); experiment: (Ca^2+)i mobilization, HEK-293S cells, RAMP3 + CLR; assay type: cell-based; settings: HEK293S, percentage of maximal (Ca^2+)i release with 10 μM ionomycin, mean ± S.E., n = 5
# T1 construct: FLAG; expressed in transfected cells; host or cells: HEK-293 or HEK-293S cells, transient transfection, 1:1 RAMP:CLR
# T1 sequence (Q16602 23-461): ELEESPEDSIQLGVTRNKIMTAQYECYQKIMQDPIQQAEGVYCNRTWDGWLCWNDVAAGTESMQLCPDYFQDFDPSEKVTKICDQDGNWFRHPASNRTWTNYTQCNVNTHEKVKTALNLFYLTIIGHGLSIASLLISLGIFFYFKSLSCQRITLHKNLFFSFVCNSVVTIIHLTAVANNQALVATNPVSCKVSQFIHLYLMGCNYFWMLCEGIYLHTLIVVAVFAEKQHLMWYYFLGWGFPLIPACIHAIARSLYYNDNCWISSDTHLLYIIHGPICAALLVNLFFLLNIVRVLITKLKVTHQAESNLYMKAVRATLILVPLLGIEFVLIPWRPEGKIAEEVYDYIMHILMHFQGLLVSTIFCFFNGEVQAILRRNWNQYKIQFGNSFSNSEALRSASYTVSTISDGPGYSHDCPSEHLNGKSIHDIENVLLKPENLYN
# T1 sequence (O60896 24-148): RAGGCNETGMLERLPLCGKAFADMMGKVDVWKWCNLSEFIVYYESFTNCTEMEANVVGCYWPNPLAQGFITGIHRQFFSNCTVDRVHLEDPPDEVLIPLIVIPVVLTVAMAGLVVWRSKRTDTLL
# Procedure: HEK-293 cells, provided by Dr. Jügen Müller (University of Aston), were cultured in DMEM supplemented with 10% heat-inactivated FBS and kept at 37 °C in a humidified 95% air, 5% CO2 incubator. HEK-293S cells (a gift from AstraZeneca) were cultured in DMEM supplemented with 8% heat-inactivated FBS and kept at 37 °C in a humidified 95% air, 5% CO2 incubator. HEK-293 cells were transfected with FuGENE 6 (Roche Applied Science) in accordance with the manufacturer's instructions using a 1:3 (w:v) DNA:FuGENE ratio and a 1:1 ratio of RAMP to CLR. HEK-293S cells were seeded into 96-well poly-D-lysine-coated plates at a density of 15,000 cells/well (determined using a Countess^TM cell counter, Invitrogen) 1 day prior to transfection. HEK-293S cells were transiently transfected as described previously ([38]) using a 1:1 ratio of RAMP to CLR. The transfected cell lines were grown for 24–48 h prior to assaying.
# Transfected HEK-293 cells were grown to confluence in black, clear bottomed, 96-well plates. […] Ligands were added robotically using a Mithras LB 940 multimode microplate reader in the range of 10 pM to 1 μM, and fluorescence was determined immediately post-injection with an excitation wavelength set to 485 nm and an emission wavelength set to 535 nm. […] Peak magnitude was calculated using five-point smoothing followed by correction against background fluorescence. […]
# RAMP3-CLR (AM2 receptor) [2] = target: T1, RAMP3-CLR (AM2 receptor); experiment: S. cerevisiae growth assay, GPA1/Gαi chimera, RAMP3 + CLR; assay type: cell-based; settings: percentage of yeast strain MMY11 (lacking GPA1); 20 h; mean ± S.E., n = 7
# Procedure: FIGURE 3. […] Reporter gene activity was determined following 20 h of stimulation.
# General yeast procedures were performed as described previously ([22], [24]). The human CLR was introduced into yeast cells under the control of the PGK promoter using a plasmid containing ura3 (pDT-PGK). The three human RAMPs were introduced into yeast under the control of the GAPDH promoter using plasmids containing leu2 (p425-GPD) ([25]). S. cerevisiae dual reporter strains expressing chimeras of yeast GPA1(1–467) (GPA1/Gα) with the five C-terminal amino acids of […] human G proteins representing Gαs, Gα16, Gαq, Gαo, Gαi1/2, Gαi3, Gαz, Gα12, Gα13, and Gα14 (MMY84–MMY93) were used in this study ([52]). […] Receptor signaling was measured using the yeast growth assay as described previously ([24]). […] A fluorescein signal was detected as an increase in fluorescence (excitation wavelength = 485 nm, emission wavelength = 535 nm) as a measure of growth. Different concentrations of ligand (0.01 nM–100 μM) were assayed using 96-well plates, and fluorescence was detected using a Tecan Infinite M200 microplate reader (Tecan Ultra Evolution, Reading, UK) or a Mithras LB 940 microplate reader (Berthold Technologies, Harpenden, UK) for 20 h. […]
Emax (RAMP3-CLR (AM2 receptor) [1]),Emax (RAMP3-CLR (AM2 receptor) [2]),SMILES
44.3 ± 3.2%,26.7 ± 1.8%,"CC[C@H](C)[C@H](NC(=O)[C@H](CCC(N)=O)NC(=O)[C@H](Cc1c[nH]cn1)NC(=O)[C@H](C)NC(=O)[C@H](CC(C)C)NC(=O)[C@H](CCCCN)NC(=O)[C@H](CCC(N)=O)NC(=O)[C@@H](NC(=O)[C@@H](NC(=O)[C@@H]1CSSC[C@H](NC(=O)CNC(=O)[C@H](Cc2ccccc2)NC(=O)[C@H](CO)NC(=O)[C@H](CCCNC(=N)N)NC(=O)[C@H](CC(C)C)NC(=O)CNC(=O)[C@H](CCC(N)=O)NC(=O)[C@H](Cc2ccccc2)NC(=O)[C@H](CC(N)=O)NC(=O)[C@H](CC(N)=O)NC(=O)[C@H](CCSC)NC(=O)[C@H](CO)NC(=O)[C@H](CCC(N)=O)NC(=O)[C@H](CCCNC(=N)N)NC(=O)[C@@H](N)Cc2ccc(O)cc2)C(=O)N[C@@H](CCCNC(=N)N)C(=O)N[C@@H](Cc2ccccc2)C(=O)NCC(=O)N[C@@H]([C@@H](C)O)C(=O)N1)[C@@H](C)O)C(C)C)C(=O)N[C@@H](Cc1ccc(O)cc1)C(=O)N[C@@H](CCC(N)=O)C(=O)N[C@@H](Cc1ccccc1)C(=O)N[C@H](C(=O)N[C@@H](CC(=O)O)C(=O)N[C@@H](CCCCN)C(=O)N[C@@H](CC(=O)O)C(=O)N[C@@H](CCCCN)C(=O)N[C@@H](CC(=O)O)C(=O)N[C@@H](CC(N)=O)C(=O)N[C@H](C(=O)N[C@@H](C)C(=O)N1CCC[C@H]1C(=O)N[C@@H](CCCNC(=N)N)C(=O)N[C@@H](CO)C(=O)N[C@@H](CCCCN)C(=O)N[C@H](C(=O)N[C@@H](CO)C(=O)N1CCC[C@H]1C(=O)N[C@@H](CCC(N)=O)C(=O)NCC(=O)N[C@@H](Cc1ccc(O)cc1)C(N)=O)[C@@H](C)CC)C(C)C)[C@@H](C)O [AM, adrenomedullin]"
20.1 ± 4.3%,15.7 ± 2.1%,"CSCC[C@H](NC(=O)[C@H](CC(C)C)NC(=O)[C@H](CCC(N)=O)NC(=O)[C@H](Cc1c[nH]c2ccccc12)NC(=O)[C@H](CC(C)C)NC(=O)[C@H](CCCNC(=N)N)NC(=O)[C@H](Cc1c[nH]cn1)NC(=O)[C@H](CO)NC(=O)[C@H](CC(C)C)NC(=O)[C@H](CC(N)=O)NC(=O)[C@H](CCC(N)=O)NC(=O)[C@@H](NC(=O)[C@H](CCC(N)=O)NC(=O)[C@@H]1CSSC[C@H](NC(=O)CNC(=O)[C@@H](NC(=O)[C@H](CCCNC(=N)N)NC(=O)[C@H](CC(C)C)NC(=O)[C@H](CC(C)C)NC(=O)[C@H](CCC(N)=O)NC(=O)[C@H](C)NC(=O)[C@H](CCC(N)=O)NC(=O)[C@@H](N)[C@@H](C)O)C(C)C)C(=O)N[C@@H](C(C)C)C(=O)N[C@@H](CC(C)C)C(=O)NCC(=O)N[C@@H]([C@@H](C)O)C(=O)N1)C(C)C)C(=O)NCC(=O)N1CCC[C@H]1C(=O)N[C@@H](C)C(=O)NCC(=O)N[C@@H](CCCNC(=N)N)C(=O)N[C@@H](CCC(N)=O)C(=O)N[C@@H](CC(=O)O)C(=O)N[C@@H](CO)C(=O)N[C@@H](C)C(=O)N1CCC[C@H]1C(=O)N[C@H](C(=O)N[C@@H](CC(=O)O)C(=O)N1CCC[C@H]1C(=O)N[C@@H](CO)C(=O)N[C@@H](CO)C(=O)N1CCC[C@H]1C(=O)N[C@@H](Cc1c[nH]cn1)C(=O)N[C@@H](CO)C(=O)N[C@@H](Cc1ccc(O)cc1)C(N)=O)C(C)C [AM2, adrenomedullin 2]"
